In article PMC11285948, “The effects of CYP2B6 inactivators on the metabolism of ciprofol” (PLOS ONE, 2024):
Several values for one entry are separate records, joined by “and”; a condition that tells them apart may be missing. Equal values may be shown once.

Columns and labels:
[1] = test system: human liver microsomes (HLMs); assay: Ciprofol metabolism in HLM incubation system (incubation time, protein concentration, enzyme kinetics); assay type: in vitro ADME; conditions: for reduction of ciprofol ΔC (Enzymatic reaction kinetics): ΔC1-ΔC3 and Mean; for ciprofol concentration in incubation system (Incubation time) / ciprofol concentration in incubation system (Liver microsomal protein concentration): C1-C3 and Mean; for ciprofol concentration in incubation system (Liver microsomal protein concentration): ciprofol 40 μg·mL^-1, 60 min
Procedure: (§1) The volume of the incubation system was 200 μL and included 2 μL of substrate (ciprofol), 8 μL of rat liver microsomes (RLMs) or 6 μL of human liver microsomes (HLMs), 12 μL of NADPH generation system of solution (solution A 10 μL, solution B 2 μL), and the remaining volume was PBS. The incubation was performed in a water bath at a constant temperature of 37°C, and each sample was incubated three times in parallel.
(§2) The incubation system was removed from the water bath, and the reaction was terminated immediately by adding 800 μL of reaction termination solution (acetonitrile solution containing 5 μg·mL^-1 D6-ciprofol at 4°C). The mixture was vortexed for 2 min and centrifuged for 15 min, after which the supernatant was transferred to an autosampler vial for HPLC-MS/MS detection.
(§3) The concentrations of ciprofol and liver microsomal proteins in the RLM incubation system were set at 25 μg·mL^-1 and 0.8 mg·mL^-1, respectively, whereas those in the HLM incubation system were set at 40 μg·mL^-1 and 0.6 mg·mL^-1, respectively. Samples were obtained and assayed after 0, 10, 20, 30, 40, 60, 80, 100 and 120 min of incubation, and the optimum incubation time was determined according to the decreasing trend in ciprofol concentration.
(§4) The ciprofol concentrations in the RLM and HLM incubation systems were set at 25 and 40 μg·mL^-1, respectively. The liver microsomal protein concentrations were 0, 0.1, 0.2, 0.4, 0.6, 0.8 and 1.0 mg·mL^-1. The optimal protein concentration in the incubation system was determined based on the reduction of ciprofol (ΔC) after 40 min of incubation in RLMs and 60 min in HLMs.
(§5) The liver microsomal protein concentrations in the RLM incubation system and the HLM incubation system were 0.8 mg·mL^-1 and 0.6 mg·mL^-1, and the cells were incubated for 40 min and 60 min, respectively. The ciprofol concentrations in the incubation system were set at 4, 8, 16, 32, 48 and 80 μg·mL^-1, and the kinetic parameters of ciprofol metabolism were investigated based on ΔC values at different initial ciprofol concentrations (C0).
(§6) The substrate elimination method was employed in this study, and GraphPad Prism 8.0.2 software was used for statistical processing, including determination of the kinetic parameters of ciprofol metabolism and the IC50 values of psoralen and clopidogrel for ciprofol metabolism. The maximum velocity (Vmax), Michaelis constant (Km) and intrinsic clearance (CLint) were calculated using the […]: V=Vmax×[S]/Km+[S] CLint=Vmax/Km

[2] = test system: rat liver microsomes (RLMs); assay: Ciprofol metabolism in RLM incubation system (incubation time, protein concentration, enzyme kinetics); assay type: in vitro ADME; conditions: for reduction of ciprofol ΔC (Enzymatic reaction kinetics): ΔC1-ΔC3 and Mean; for ciprofol concentration in incubation system (Incubation time) / ciprofol concentration in incubation system (Liver microsomal protein concentration): C1-C3 and Mean; for ciprofol concentration in incubation system (Liver microsomal protein concentration): RLMs, ciprofol 25 μg·mL^-1, 40 min
Procedure: as §1, §2, §3, §4, §5, §6

CC(C)c1cccc([C@H](C)C2CC2)c1O [ciprofol]
Km of ciprofol metabolism ([1]; HLMs 0.6 mg·mL^-1, 60 min): 40.07 µg/mL
Vmax of ciprofol metabolism ([1]; HLMs 0.6 mg·mL^-1, 60 min): 42.39 ng·min^-1·mg protein^-1
reduction of ciprofol ΔC (Enzymatic reaction kinetics) ([1]; HLMs 0.6 mg·mL^-1, 60 min, initial ciprofol C 4 μg/mL): 3.114 µg/mL and 3.093 µg/mL and 3.175 µg/mL and 3.13 µg/mL
reduction of ciprofol ΔC (Enzymatic reaction kinetics) ([1]; HLMs 0.6 mg·mL^-1, 60 min, initial ciprofol C 8 μg/mL): 6.89 µg/mL and 6.98 µg/mL and 7.022 µg/mL and 6.96 µg/mL
reduction of ciprofol ΔC (Enzymatic reaction kinetics) ([1]; HLMs 0.6 mg·mL^-1, 60 min, initial ciprofol C 16 μg/mL): 12.73 µg/mL and 12.88 µg/mL and 12.21 µg/mL and 12.61 µg/mL
reduction of ciprofol ΔC (Enzymatic reaction kinetics) ([1]; HLMs 0.6 mg·mL^-1, 60 min, initial ciprofol C 32 μg/mL): 17.77 µg/mL and 19.4 µg/mL and 16.95 µg/mL and 18.04 µg/mL
reduction of ciprofol ΔC (Enzymatic reaction kinetics) ([1]; HLMs 0.6 mg·mL^-1, 60 min, initial ciprofol C 48 μg/mL): 23.33 µg/mL and 25.1 µg/mL and 23.91 µg/mL and 24.11 µg/mL
reduction of ciprofol ΔC (Enzymatic reaction kinetics) ([1]; HLMs 0.6 mg·mL^-1, 60 min, initial ciprofol C 80 μg/mL): 28.42 µg/mL and 27.74 µg/mL and 27.36 µg/mL and 27.84 µg/mL
ciprofol concentration in incubation system (Incubation time) ([1]; HLMs 0.6 mg·mL^-1, ciprofol 40 μg·mL^-1, T 0 min): 37.89 µg/mL and 38.98 µg/mL and 40.56 µg/mL and 39.14 µg/mL
ciprofol concentration in incubation system (Incubation time) ([1]; HLMs 0.6 mg·mL^-1, ciprofol 40 μg·mL^-1, T 10 min): 36.11 µg/mL and 34.79 µg/mL and 36.39 µg/mL and 35.76 µg/mL
ciprofol concentration in incubation system (Incubation time) ([1]; HLMs 0.6 mg·mL^-1, ciprofol 40 μg·mL^-1, T 20 min): 31.73 µg/mL and 29.56 µg/mL and 32.69 µg/mL and 31.33 µg/mL
ciprofol concentration in incubation system (Incubation time) ([1]; HLMs 0.6 mg·mL^-1, ciprofol 40 μg·mL^-1, T 30 min): 28.14 µg/mL and 24.88 µg/mL and 28.27 µg/mL and 27.10 µg/mL
ciprofol concentration in incubation system (Incubation time) ([1]; HLMs 0.6 mg·mL^-1, ciprofol 40 μg·mL^-1, T 40 min): 26.01 µg/mL and 21.75 µg/mL and 25.61 µg/mL and 24.46 µg/mL
ciprofol concentration in incubation system (Incubation time) ([1]; HLMs 0.6 mg·mL^-1, ciprofol 40 μg·mL^-1, T 60 min): 21.50 µg/mL and 18.33 µg/mL and 20.08 µg/mL and 19.97 µg/mL
ciprofol concentration in incubation system (Incubation time) ([1]; HLMs 0.6 mg·mL^-1, ciprofol 40 μg·mL^-1, T 80 min): 19.59 µg/mL and 17.50 µg/mL and 18.53 µg/mL and 18.54 µg/mL
ciprofol concentration in incubation system (Incubation time) ([1]; HLMs 0.6 mg·mL^-1, ciprofol 40 μg·mL^-1, T 100 min): 18.42 µg/mL and 15.96 µg/mL and 17.83 µg/mL and 17.40 µg/mL
ciprofol concentration in incubation system (Incubation time) ([1]; HLMs 0.6 mg·mL^-1, ciprofol 40 μg·mL^-1, T 120 min): 17.25 µg/mL and 14.82 µg/mL and 15.95 µg/mL and 16.01 µg/mL
ciprofol concentration in incubation system (Liver microsomal protein concentration) ([1]; HLMs, Cprotein 0 mg/mL): 39.87 µg/mL and 40.23 µg/mL and 38.51 µg/mL and 39.54 µg/mL
ciprofol concentration in incubation system (Liver microsomal protein concentration) ([1]; HLMs, Cprotein 0.1 mg/mL): 35.11 µg/mL and 36.09 µg/mL and 35.34 µg/mL and 35.51 µg/mL
ciprofol concentration in incubation system (Liver microsomal protein concentration) ([1]; HLMs, Cprotein 0.2 mg/mL): 30.78 µg/mL and 30.52 µg/mL and 29.4 µg/mL and 30.23 µg/mL
ciprofol concentration in incubation system (Liver microsomal protein concentration) ([1]; HLMs, Cprotein 0.4 mg/mL): 24.5 µg/mL and 24.31 µg/mL and 22.53 µg/mL and 23.78 µg/mL
ciprofol concentration in incubation system (Liver microsomal protein concentration) ([1]; HLMs, Cprotein 0.6 mg/mL): 20.49 µg/mL and 20.86 µg/mL and 19.64 µg/mL and 20.33 µg/mL
ciprofol concentration in incubation system (Liver microsomal protein concentration) ([1]; HLMs, Cprotein 0.8 mg/mL): 19.89 µg/mL and 20.13 µg/mL and 19.02 µg/mL and 19.68 µg/mL
ciprofol concentration in incubation system (Liver microsomal protein concentration) ([1]; HLMs, Cprotein 1 mg/mL): 19.11 µg/mL and 19.68 µg/mL and 20.54 µg/mL and 19.78 µg/mL
CLint of ciprofol ([1]; HLMs, CLint=Vmax/Km): 1.06 mL·min^-1·mg protein^-1
Km of ciprofol metabolism ([2]; RLMs 0.8 mg·mL^-1, 40 min): 25.11 µg/mL
Vmax of ciprofol metabolism ([2]; RLMs 0.8 mg·mL^-1, 40 min): 14.06 ng·min^-1·mg protein^-1
reduction of ciprofol ΔC (Enzymatic reaction kinetics) ([2]; RLMs 0.8 mg·mL^-1, 40 min, initial ciprofol C 4 μg/mL): 2.12 µg/mL and 1.71 µg/mL and 2.14 µg/mL and 1.99 µg/mL
reduction of ciprofol ΔC (Enzymatic reaction kinetics) ([2]; RLMs 0.8 mg·mL^-1, 40 min, initial ciprofol C 8 μg/mL): 3.40 µg/mL and 3.72 µg/mL and 3.90 µg/mL and 3.68 µg/mL
reduction of ciprofol ΔC (Enzymatic reaction kinetics) ([2]; RLMs 0.8 mg·mL^-1, 40 min, initial ciprofol C 16 μg/mL): 5.07 µg/mL and 6.04 µg/mL and 4.94 µg/mL and 5.35 µg/mL
reduction of ciprofol ΔC (Enzymatic reaction kinetics) ([2]; RLMs 0.8 mg·mL^-1, 40 min, initial ciprofol C 32 μg/mL): 7.10 µg/mL and 8.64 µg/mL and 7.63 µg/mL and 7.79 µg/mL
reduction of ciprofol ΔC (Enzymatic reaction kinetics) ([2]; RLMs 0.8 mg·mL^-1, 40 min, initial ciprofol C 48 μg/mL): 9.57 µg/mL and 8.62 µg/mL and 8.97 µg/mL and 9.05 µg/mL
reduction of ciprofol ΔC (Enzymatic reaction kinetics) ([2]; RLMs 0.8 mg·mL^-1, 40 min, initial ciprofol C 80 μg/mL): 10.20 µg/mL and 11.72 µg/mL and 10.73 µg/mL and 10.88 µg/mL
ciprofol concentration in incubation system (Incubation time) ([2]; RLMs 0.8 mg·mL^-1, ciprofol 25 μg·mL^-1, T 0 min): 25.04 µg/mL and 26.05 µg/mL and 27.04 µg/mL and 26.04 µg/mL
ciprofol concentration in incubation system (Incubation time) ([2]; RLMs 0.8 mg·mL^-1, ciprofol 25 μg·mL^-1, T 10 min): 21.96 µg/mL and 25.48 µg/mL and 25.19 µg/mL and 24.21 µg/mL
ciprofol concentration in incubation system (Incubation time) ([2]; RLMs 0.8 mg·mL^-1, ciprofol 25 μg·mL^-1, T 20 min): 20.63 µg/mL and 19.64 µg/mL and 23.74 µg/mL and 21.34 µg/mL
ciprofol concentration in incubation system (Incubation time) ([2]; RLMs 0.8 mg·mL^-1, ciprofol 25 μg·mL^-1, T 30 min): 17.46 µg/mL and 18.48 µg/mL and 22.67 µg/mL and 19.53 µg/mL
ciprofol concentration in incubation system (Incubation time) ([2]; RLMs 0.8 mg·mL^-1, ciprofol 25 μg·mL^-1, T 40 min): 16.32 µg/mL and 16.15 µg/mL and 19.54 µg/mL and 17.34 µg/mL
ciprofol concentration in incubation system (Incubation time) ([2]; RLMs 0.8 mg·mL^-1, ciprofol 25 μg·mL^-1, T 60 min): 15.01 µg/mL and 16.57 µg/mL and 18.99 µg/mL and 16.86 µg/mL
ciprofol concentration in incubation system (Incubation time) ([2]; RLMs 0.8 mg·mL^-1, ciprofol 25 μg·mL^-1, T 80 min): 13.80 µg/mL and 14.14 µg/mL and 18.20 µg/mL and 15.38 µg/mL
ciprofol concentration in incubation system (Incubation time) ([2]; RLMs 0.8 mg·mL^-1, ciprofol 25 μg·mL^-1, T 100 min): 12.48 µg/mL and 12.69 µg/mL and 17.81 µg/mL and 14.32 µg/mL
ciprofol concentration in incubation system (Incubation time) ([2]; RLMs 0.8 mg·mL^-1, ciprofol 25 μg·mL^-1, T 120 min): 11.61 µg/mL and 11.81 µg/mL and 16.86 µg/mL and 13.43 µg/mL
ciprofol concentration in incubation system (Liver microsomal protein concentration) ([2]; Cprotein 0 mg/mL): 24.55 µg/mL and 25.68 µg/mL and 26.29 µg/mL and 25.50 µg/mL
ciprofol concentration in incubation system (Liver microsomal protein concentration) ([2]; Cprotein 0.1 mg/mL): 23.43 µg/mL and 22.66 µg/mL and 24.40 µg/mL and 23.50 µg/mL
ciprofol concentration in incubation system (Liver microsomal protein concentration) ([2]; Cprotein 0.2 mg/mL): 21.66 µg/mL and 22.34 µg/mL and 19.74 µg/mL and 21.25 µg/mL
ciprofol concentration in incubation system (Liver microsomal protein concentration) ([2]; Cprotein 0.4 mg/mL): 19.22 µg/mL and 19.23 µg/mL and 17.57 µg/mL and 18.67 µg/mL
ciprofol concentration in incubation system (Liver microsomal protein concentration) ([2]; Cprotein 0.6 mg/mL): 19.49 µg/mL and 17.16 µg/mL and 15.28 µg/mL and 17.31 µg/mL
ciprofol concentration in incubation system (Liver microsomal protein concentration) ([2]; Cprotein 0.8 mg/mL): 18.46 µg/mL and 15.72 µg/mL and 14.74 µg/mL and 16.31 µg/mL
ciprofol concentration in incubation system (Liver microsomal protein concentration) ([2]; Cprotein 1 mg/mL): 17.05 µg/mL and 19.78 µg/mL and 13.60 µg/mL and 16.81 µg/mL
